# Columns and labels:
# Assay in all cases: relative viability (nuclei count vs DMSO), 5 days (fraction); higher = more cells survive
# [1] = compound: CC(C)C[C@H](NC(=O)[C@H](CCc1ccccc1)NC(=O)CN1CCOCC1)C(=O)N[C@@H](Cc1ccccc1)C(=O)N[C@@H](CC(C)C)C(=O)[C@@]1(C)CO1 [Carfilzomib] + CC1(C)CCC(c2ccc(Cl)cc2)=C(CN2CCN(c3ccc(C(=O)NS(=O)(=O)c4ccc(N[C@H](CCN5CCOCC5)CSc5ccccc5)c(S(=O)(=O)C(F)(F)F)c4)cc3)CC2)C1 [Navitoclax] (partner 0.5 µM)
# In short: (§1)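 Relative viability was taken as the ratio of nuclei in treated wells to nuclei in vehicle wells. Lung cancer cell lines in 1536-well plates received compounds by pin tool one day after seeding, either one drug alone or a fixed anchor-drug dose plus five library-drug doses (not always all listed) in √10 steps. Nuclei were counted on 4× images after 5 days of treatment, and values are medians of duplicate plates.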
# [2] = compound: CC(C)C[C@H](NC(=O)[C@H](CCc1ccccc1)NC(=O)CN1CCOCC1)C(=O)N[C@@H](Cc1ccccc1)C(=O)N[C@@H](CC(C)C)C(=O)[C@@]1(C)CO1 [Carfilzomib] + C[C@]1(O)C[C@@H](c2nc(-c3ccc4ccc(-c5ccccc5)nc4c3)c3c(N)nccn32)C1 [Linsitinib] (partner 1 µM)
# In short: as §1
# [3] = compound: O=C(c1cc(Cc2n[nH]c(=O)c3ccccc23)ccc1F)N1CCN(C(=O)C2CC2)CC1 [Olaparib] + COc1cccc2cc(-c3nc([C@H]4CC[C@H](C(=O)O)CC4)n4ncnc(N)c34)[nH]c12 [OSI-027] (partner 0.5 µM)
# In short: as §1
# [4] = compound: O=C(c1cc(Cc2n[nH]c(=O)c3ccccc23)ccc1F)N1CCN(C(=O)C2CC2)CC1 [Olaparib] + Cc1nc(Nc2ncc(C(=O)Nc3c(C)cccc3Cl)s2)cc(N2CCN(CCO)CC2)n1 [Dasatinib] (partner 0.075 µM)
# In short: as §1
Cell Line,relative viability ([1]; first compound 0.001 µM),relative viability ([1]; first compound 0.003162 µM),relative viability ([1]; first compound 0.01 µM),relative viability ([1]; first compound 0.03162 µM),relative viability ([1]; first compound 0.1 µM),relative viability ([2]; first compound 0.001 µM),relative viability ([2]; first compound 0.003162 µM),relative viability ([2]; first compound 0.01 µM),relative viability ([2]; first compound 0.03162 µM),relative viability ([2]; first compound 0.1 µM),relative viability ([3]; first compound 0.08 µM),relative viability ([3]; first compound 0.253 µM),relative viability ([3]; first compound 2.53 µM),relative viability ([3]; first compound 8 µM),relative viability ([4]; first compound 0.08 µM),relative viability ([4]; first compound 0.253 µM),relative viability ([4]; first compound 2.53 µM),relative viability ([4]; first compound 8 µM)
NCI-H23,0.797,0.799,0.987,0.227,0.152,0.537,0.708,0.567,0.206,0.12,0.8,0.58,0.465,0.367,0.922,0.802,0.61,0.488
NCI-H322M,1.36,1.29,1.01,1.22,0.559,0.806,0.929,0.913,0.99,0.489,0.713,0.523,0.518,0.456,0.251,0.231,0.248,0.252
NCI-H441,0.534,0.571,0.208,0.144,0.145,0.569,0.451,0.233,0.104,0.115,0.683,0.724,0.642,0.581,0.818,0.542,0.651,0.589
NCI-H460,1.08,1.21,1.17,0.357,0.0107,0.759,0.891,0.719,0.0155,0.0133,0.677,0.643,0.434,0.215,0.471,0.464,0.32,0.178
NCI-H520,1.04,1.37,0.797,0.183,0.168,1.01,1.09,0.667,0.152,0.151,0.233,0.246,0.281,0.213,0.176,0.178,0.189,0.153
NCI-H596,0.906,1.04,1.14,0.353,0.153,1.11,1.03,1.16,0.628,0.449,0.718,0.782,0.718,0.642,0.597,0.68,0.583,0.454
NCI-H647,,1.33,0.841,0.087,0.0294,0.942,1.16,0.761,0.0416,0.0315,0.701,0.596,0.688,0.482,0.249,0.181,0.189,0.175
NCI-H727,0.429,0.637,0.601,0.165,0.137,0.406,0.249,0.301,0.431,0.117,0.91,0.619,0.546,0.471,0.439,0.405,0.469,0.324
NCI-H838,1.24,1.26,1.16,0.686,0.153,1.02,1.02,1.05,0.676,0.116,0.417,0.367,0.38,0.405,0.303,0.259,0.272,0.256
NCI-H1355,0.792,1.02,0.979,0.486,0.133,0.795,0.915,0.794,0.487,0.14,0.517,0.399,0.441,0.412,0.759,0.731,0.724,0.703
NCI-H1395,0.964,1.24,0.995,0.481,0.347,1.28,1.16,0.795,1.4,0.307,0.743,0.58,0.524,0.536,0.465,0.358,0.39,0.419
NCI-H1437,1.08,1.12,1.12,0.759,0.12,0.965,1.08,0.984,0.388,0.117,0.967,0.871,0.855,0.771,0.548,0.399,0.441,0.39
NCI-H1651,1.11,1.06,0.728,0.123,0.0777,0.982,0.965,0.487,0.0962,0.0748,0.756,0.615,0.545,0.445,0.423,0.311,0.31,0.218
NCI-H1666,1.07,0.963,1.05,0.929,0.263,0.844,0.796,0.79,0.545,0.24,0.845,0.791,0.717,0.758,0.883,0.68,0.693,0.651
NCI-H1734,0.831,1.05,0.803,0.584,0.0981,0.871,0.986,0.855,0.715,0.205,0.662,0.516,0.486,0.374,0.458,0.399,0.421,0.326
NCI-H1755,0.972,0.989,0.994,0.841,0.198,0.984,0.986,0.982,0.97,0.218,0.803,0.64,0.647,0.638,0.477,0.399,0.44,0.404
NCI-H1792,0.575,0.628,0.563,0.612,0.555,0.492,0.632,0.365,0.633,0.339,0.759,0.652,0.712,0.669,0.816,0.689,0.841,0.62

Cell Line,relative viability ([1]; first compound 0.001 µM),relative viability ([1]; first compound 0.003162 µM),relative viability ([1]; first compound 0.01 µM),relative viability ([1]; first compound 0.03162 µM),relative viability ([1]; first compound 0.1 µM),relative viability ([2]; first compound 0.001 µM),relative viability ([2]; first compound 0.003162 µM),relative viability ([2]; first compound 0.01 µM),relative viability ([2]; first compound 0.03162 µM),relative viability ([2]; first compound 0.1 µM),relative viability ([3]; first compound 0.08 µM),relative viability ([3]; first compound 0.253 µM),relative viability ([3]; first compound 2.53 µM),relative viability ([3]; first compound 8 µM),relative viability ([4]; first compound 0.08 µM),relative viability ([4]; first compound 0.253 µM),relative viability ([4]; first compound 2.53 µM),relative viability ([4]; first compound 8 µM)
NCI-H1915,0.717,0.785,0.762,0.438,0.0486,1.1,1.1,1.05,0.655,0.106,0.612,0.572,0.533,0.374,0.315,0.294,0.28,0.252
NCI-H1944,0.998,1.16,1.01,1.05,0.546,1.14,1.24,1.17,1.2,0.489,0.404,0.362,0.369,0.374,0.177,0.215,0.178,0.149
NCI-H1975,1.05,1.23,0.416,0.213,0.144,0.885,0.896,0.562,0.129,0.132,0.761,0.703,0.848,0.758,0.396,0.346,0.381,0.364
NCI-H1993,0.856,0.773,1.08,0.861,0.527,0.758,0.773,0.712,0.607,0.563,0.585,0.502,0.389,0.527,0.725,0.556,0.656,0.716
NCI-H2009,1.24,1.2,1.15,0.993,0.0572,1.24,1.28,1.22,0.494,0.0639,0.739,0.601,0.645,0.458,0.42,0.279,0.304,0.272
NCI-H2023,1,0.967,1.02,0.907,0.0939,0.6,0.768,0.653,0.607,0.0783,0.445,0.356,0.406,0.276,0.672,0.489,0.528,0.467
NCI-H2085,1.08,1.23,1.02,0.436,0.242,0.843,0.835,0.778,0.418,0.235,1.15,0.687,0.698,0.751,0.292,0.225,0.241,0.226
NCI-H2087,1.07,0.97,0.721,0.115,0.0804,0.936,1.05,0.851,0.108,0.119,0.794,0.489,0.501,0.49,1.27,0.621,0.804,0.617
NCI-H2126,0.826,0.884,0.871,0.865,0.592,0.703,0.793,0.695,0.764,0.58,0.766,0.669,0.794,0.639,0.728,0.634,0.558,0.606
NCI-H2228,1.06,1.56,0.788,0.699,0.0563,0.592,1.04,0.524,0.156,0.103,0.644,0.386,0.598,0.509,0.587,0.495,0.458,0.304
NCI-H2347,0.698,0.931,0.733,0.512,0.235,0.983,1.06,0.962,0.785,0.391,0.472,0.371,0.344,0.37,0.335,0.292,0.293,0.294
NCI-H2405,,1.26,1.04,0.108,0.092,,1.19,1.01,0.389,0.16,0.717,0.625,0.636,0.583,0.192,0.181,0.204,0.217
NCI-H3122,1.03,1.07,1.05,0.992,0.672,0.958,1.05,0.95,1,0.806,1.14,0.954,1.01,0.814,0.463,0.823,0.873,0.696
PC-3 [JPC-3],0.74,0.84,0.761,0.705,0.138,1,0.881,1,0.86,0.466,0.825,0.711,0.824,0.747,1.08,0.902,1.01,0.895
PC-14,1,1.05,1.05,0.133,0.0977,1.09,0.937,1.08,0.215,0.12,1.27,0.795,0.805,0.471,0.333,0.231,0.311,0.205
RERF-LC-KJ,0.972,1.13,0.608,0.218,0.252,0.888,0.919,1.05,0.776,0.353,0.66,0.592,0.598,0.614,0.891,0.81,0.858,0.8
SK-LU-1,0.77,0.896,0.286,0.0872,0.0846,1.08,1.34,0.949,0.173,0.161,0.345,0.331,0.382,0.24,0.197,0.159,0.181,0.161

# — the supplement of paper PMC10307832
